According to patent US7214494B2, “Method of screening for substance preventing or treating diseases in association with malfunction of IL-6 family cytokine receptor malfunction” (Saten Pharmaceutical Co., Ltd., priority 2000, dated 2007):

System: arthritis in gp130^F759/F759 mice
Assay: Screening test for anti-arthritis agents in gp130F759/F759 mice
Type: in vivo, mouse
Conditions: for arthritis score: gp130^F759/F759 mice developing arthritis, methotrexate 0.4 mg/kg orally five days in a week from age of 9 months
Protocol: gp130^F759/F759 mice or mice obtained by backcrossing of the gp130^F759/F759 mice (gp130^F759/F759-related mice) were used as a model mouse. A test compound of antirheumatic drugs such as bucilamine and methotrexate, nonsteroidal anti-inflammatory drugs such as diclofenac, or steroidal drugs such as dexamethasone was administered. The administration was conducted before the onset of immune disorders or arthritis for screening of prophylactic drugs, whereas after the observation of visible arthritis for screening of therapeutic drugs. The following is to illustrate the screening test for anti-arthritic agents using methotrexate as a test compound, and screening tests for other compounds would be conducted according to a similar manner to the following.
Methotrexate was administered orally at a dose of 0.4 mg/kg to the mice at the aged of 9 months for five days in a week. […] The severity of arthritis was scored based on restricted range of motion, swelling and flare of digit joints, and the presence or absence of rigidity. The mice whose arthritis conditions were observed constantly for two weeks or more were estimated as developed animal, and incident and severity were determined with time course.

## CN(Cc1cnc2nc(N)nc(N)c2n1)c1ccc(C(=O)N[C@@H](CCC(=O)O)C(=O)O)cc1 [methotrexate]
Aged 48 weeks (12-month-old), control 4.33±1.86
  arthritis score: 1.33±0.33
Aged 53 weeks, control 4.67±0.67
  arthritis score: 0.67±0.33
gp130^F759/F759 mice, 0.4 mg/kg orally
  effect on arthritis in the mouse model: inhibits the arthritis
